According to the NIST ThermoML archive (doi:10.1016/j.fluid.2019.05.003):

Experiment: xn = mol fraction of the nth substance listed
Conditions: 101 kPa, Liquid; for viscosity: Falling or rolling sphere viscometry; for mass density: Vibrating tube method

CC[N+]1(C)CCOCC1.[Br-] [N-ethyl-N-methylmorpholinium bromide] + O
Conditions	mass density [kg/m3]	viscosity [mPa·s]
298.15 K, x1 = 0.023	1062.6	1.197
298.15 K, x1 = 0.045	1111.8	1.56
298.15 K, x1 = 0.07	1156	2.228
298.15 K, x1 = 0.1	1197.3	3.5
298.15 K, x1 = 0.128	1227	5.195
298.15 K, x1 = 0.16	1254.9	8.371
298.15 K, x1 = 0.192	1278.3	13.81
298.15 K, x1 = 0.22	1295.2	22.13
298.15 K, x1 = 0.252	1311.3	37.25
303.15 K, x1 = 0.023	1060.7	1.06
303.15 K, x1 = 0.045	1109.6	1.391
303.15 K, x1 = 0.07	1153.6	1.983
303.15 K, x1 = 0.1	1194.6	3.126
303.15 K, x1 = 0.128	1224.2	4.423
303.15 K, x1 = 0.16	1252	7.156
303.15 K, x1 = 0.192	1275.3	11.53
303.15 K, x1 = 0.22	1292.1	18.2
303.15 K, x1 = 0.252	1308.2	29.81
308.15 K, x1 = 0.023	1058.6	0.961
308.15 K, x1 = 0.045	1107.3	1.254
308.15 K, x1 = 0.07	1151	1.778
308.15 K, x1 = 0.1	1191.8	2.816
308.15 K, x1 = 0.128	1221.3	3.944
308.15 K, x1 = 0.16	1249	6.192
308.15 K, x1 = 0.192	1272.3	9.829
308.15 K, x1 = 0.22	1289	15.03
308.15 K, x1 = 0.252	1305	24.22
313.15 K, x1 = 0.023	1056.3	0.876
313.15 K, x1 = 0.045	1104.8	1.136
313.15 K, x1 = 0.07	1148.3	1.566
313.15 K, x1 = 0.1	1189	2.543
313.15 K, x1 = 0.128	1218.4	3.485
313.15 K, x1 = 0.16	1246	5.438
313.15 K, x1 = 0.192	1269.2	8.443
313.15 K, x1 = 0.22	1285.9	12.5
313.15 K, x1 = 0.252	1301.9	19.81
318.15 K, x1 = 0.023	1053.7	0.805
318.15 K, x1 = 0.045	1102.2	1.037
318.15 K, x1 = 0.07	1145.6	1.45
318.15 K, x1 = 0.1	1186.1	2.291
318.15 K, x1 = 0.128	1215.4	3.1
318.15 K, x1 = 0.16	1243	4.738
318.15 K, x1 = 0.192	1266.1	7.253
318.15 K, x1 = 0.22	1282.8	10.46
318.15 K, x1 = 0.252	1298.7	16.49
323.15 K, x1 = 0.023	1051.7	0.756
323.15 K, x1 = 0.045	1099.6	0.953
323.15 K, x1 = 0.07	1142.8	1.328
323.15 K, x1 = 0.1	1183.2	2.098
323.15 K, x1 = 0.128	1212.4	2.776
323.15 K, x1 = 0.16	1239.9	4.235
323.15 K, x1 = 0.192	1263	6.32
323.15 K, x1 = 0.22	1279.7	8.952
323.15 K, x1 = 0.252	1295.6	13.88
328.15 K, x1 = 0.023	1049.5	0.717
328.15 K, x1 = 0.045	1097.1	0.879
328.15 K, x1 = 0.07	1139.8	1.22
328.15 K, x1 = 0.1	1180.2	1.908
328.15 K, x1 = 0.128	1209.4	2.493
328.15 K, x1 = 0.16	1236.8	3.696
328.15 K, x1 = 0.192	1259.9	5.528
328.15 K, x1 = 0.22	1276.5	7.778
328.15 K, x1 = 0.252	1292.4	11.84
333.15 K, x1 = 0.023	1047.3	0.638
333.15 K, x1 = 0.045	1094.6	0.813
333.15 K, x1 = 0.07	1137.3	1.123
333.15 K, x1 = 0.1	1177.3	1.748
333.15 K, x1 = 0.128	1206.3	2.263
333.15 K, x1 = 0.16	1233.7	3.324
333.15 K, x1 = 0.192	1256.7	4.903
333.15 K, x1 = 0.22	1273.3	6.702
333.15 K, x1 = 0.252	1289.2	10.27
338.15 K, x1 = 0.023	1045.1	0.624
338.15 K, x1 = 0.045	1092.1	0.764
338.15 K, x1 = 0.07	1134.6	1.051
338.15 K, x1 = 0.1	1174.6	1.626
338.15 K, x1 = 0.128	1203.2	2.058
338.15 K, x1 = 0.16	1230.5	2.988
338.15 K, x1 = 0.192	1253.5	4.274
338.15 K, x1 = 0.22	1270.1	5.649
338.15 K, x1 = 0.252	1286	8.914
343.15 K, x1 = 0.023	1042.8	0.579
343.15 K, x1 = 0.045	1089.6	0.716
343.15 K, x1 = 0.07	1131.9	0.97
343.15 K, x1 = 0.1	1171.7	1.49
343.15 K, x1 = 0.128	1200	1.882
343.15 K, x1 = 0.16	1227.3	2.726
343.15 K, x1 = 0.192	1250.3	3.874
343.15 K, x1 = 0.22	1266.9	5.218
343.15 K, x1 = 0.252	1282.7	7.822
348.15 K, x1 = 0.023	1040.6	0.551
348.15 K, x1 = 0.045	1087.2	0.675
348.15 K, x1 = 0.07	1129.2	0.901
348.15 K, x1 = 0.1	1168.8	1.357
348.15 K, x1 = 0.128	1196.7	1.733
348.15 K, x1 = 0.16	1224.1	2.517
348.15 K, x1 = 0.192	1247.1	3.514
348.15 K, x1 = 0.22	1263.6	4.632
348.15 K, x1 = 0.252	1279.5	6.907

O [water] + CC[n+]1ccccc1.[Br-]
x2 = 0
Conditions	mass density [kg/m3]	viscosity [mPa·s]
298.15 K	–	0.89
303.15 K	–	0.797
308.15 K	–	0.719
313.15 K	–	0.653
318.15 K	990.1	0.596
323.15 K	987.9	0.547
328.15 K	985.6	0.504
333.15 K	983.2	0.466
338.15 K	980.3	0.433
343.15 K	978.1	0.404
348.15 K	974.8	0.378
